From ChEMBL document CHEMBL1131037, “Structure-based design, synthesis, and biological evaluation of irreversible human rhinovirus 3C protease inhibitors. 2. Peptide structure-activity studies” (J Med Chem, 1998)

Experiments:
[1] = target: T1, Human rhinovirus A protease (Human rhinovirus sp.) (UniProt Q4U254); test: Binding affinity on human Rhinovirus 3C protease (rhinovirus serotype 14)
T1 sequence (whole entry): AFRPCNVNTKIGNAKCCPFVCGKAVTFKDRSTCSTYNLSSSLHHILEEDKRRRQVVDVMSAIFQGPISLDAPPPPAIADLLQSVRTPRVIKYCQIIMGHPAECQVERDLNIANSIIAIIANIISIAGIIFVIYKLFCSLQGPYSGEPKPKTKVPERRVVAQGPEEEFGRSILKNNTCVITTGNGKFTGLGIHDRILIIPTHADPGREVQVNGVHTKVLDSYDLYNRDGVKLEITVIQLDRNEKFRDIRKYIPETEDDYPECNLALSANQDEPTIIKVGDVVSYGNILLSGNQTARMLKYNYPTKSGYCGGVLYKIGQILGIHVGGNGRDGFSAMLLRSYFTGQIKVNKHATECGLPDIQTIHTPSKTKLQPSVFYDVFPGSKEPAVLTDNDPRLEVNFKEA

rhinovirus B14 [2] = test: Cytotoxic activity against HRV-14 in cell culture; assay type: functional, rhinovirus 14; conditions: Rhinovirus B
rhinovirus B14 [3] = test: Antiviral activity against HRV-14 in cell culture; assay type: functional, organism-based; conditions: Rhinovirus B

| Compound | K obs / 1 [1] | CC50 (rhinovirus B14 [2]) | EC50 (rhinovirus B14 [3]) |
| --- | --- | --- | --- |
| CCOC(=O)/C=C/[C@H](CCC(N)=O)NC(=O)[C@H](Cc1ccccc1)NC(=O)[C@H](CSC)NC(=O)OCc1ccccc1 | 35200 M⁻¹ s⁻¹ | > 100 µM | 0.18 µM |
| CCOC(=O)/C=C/[C@H](CCC(N)=O)NC(=O)[C@H](Cc1ccccc1)NC(=O)[C@@H](NC(=O)OCc1ccccc1)c1ccccc1 | 20700 M⁻¹ s⁻¹ |  |  |
| CCOC(=O)/C=C/[C@H](CCC(N)=O)NC(=O)[C@H](Cc1ccccc1)NC(=O)[C@H](CC(C)C)NC(=O)SC | 69800 M⁻¹ s⁻¹ | > 320 µM | 1.1 µM |
| CCOC(=O)/C=C/[C@H](CCC(N)=O)NC(=O)[C@H](Cc1ccccc1)NC(=O)[C@H](CC(C)C)NC(=O)NCc1ccccc1 | 6900 M⁻¹ s⁻¹ | > 100 µM | > 100 µM |
| CCOC(=O)/C=C/[C@H](CCC(N)=O)NC(=O)[C@H](Cc1ccccc1)NC(=O)[C@@H](NC(=O)OCc1ccccc1)C(C)C | 62500 M⁻¹ s⁻¹ | > 320 µM | 0.38 µM |
| CCOC(=O)/C=C/[C@H](CCC(N)=O)NC(=O)[C@H](Cc1ccccc1)NC(=O)[C@H](CC(C)C)NC(=O)C(C)(C)C | 8200 M⁻¹ s⁻¹ | > 100 µM | 1.8 µM |
| CCOC(=O)/C=C/[C@H](CCC(N)=O)NC(=O)[C@H](Cc1ccccc1)NC(=O)[C@H](CC(C)C)NC(=O)[C@H](C)NC(C)=O | 43400 M⁻¹ s⁻¹ | > 100 µM | 20 µM |
| CCOC(=O)/C=C/[C@H](CCC(N)=O)NC(=O)[C@H](CSC)NC(=O)[C@H](CC(C)C)NC(=O)OCc1ccccc1 | 2900 M⁻¹ s⁻¹ | > 320 µM | 8.9 µM |
| CCOC(=O)/C=C/[C@H](CCC(N)=O)NC(=O)[C@H](Cc1ccccc1)NC(=O)[C@H](CCCCN)NC(=O)OCc1ccccc1 | 18600 M⁻¹ s⁻¹ | > 320 µM | 205 µM |
| CCOC(=O)/C=C/[C@H](CCC(N)=O)NC(=O)[C@H](Cc1ccccc1)NC(=O)[C@@H](NC(=O)OCc1ccccc1)C(C)(C)C | 39800 M⁻¹ s⁻¹ | 178 µM | 0.32 µM |
| CCOC(=O)/C=C/[C@H](CCC(N)=O)NC(=O)[C@H](Cc1ccccc1)NC(=O)[C@H](CCCN1CCOCC1)NC(=O)OCc1ccccc1 | 43300 M⁻¹ s⁻¹ | > 100 µM | 7.1 µM |
| CCOC(=O)/C=C/[C@H](CCC(N)=O)NC(=O)[C@H](Cc1ccc(OP(=O)(O)O)cc1)NC(=O)[C@H](CC(C)C)NC(=O)OCc1ccccc1 | 1200 M⁻¹ s⁻¹ | > 320 µM | 14 µM |
| CCOC(=O)/C=C/[C@H](CC[S+](C)[O-])NC(=O)[C@H](Cc1ccccc1)NC(=O)[C@H](CC(C)C)NC(=O)OCc1ccccc1 (some centres not stated) | 2200 M⁻¹ s⁻¹ | > 100 µM | 1.6 µM |
| CCOC(=O)/C=C/[C@H](CCC(N)=O)NC(=O)[C@H](Cc1ccccc1)NC(=O)[C@H](CO)NC(=O)OCc1ccccc1 | 39900 M⁻¹ s⁻¹ | > 320 µM | 1.8 µM |
| CCOC(=O)/C=C/[C@H](CCC(N)=O)NC(=O)[C@H](Cc1ccccc1)NC(=O)[C@H](CCSC)NC(=O)OCc1ccccc1 | 46200 M⁻¹ s⁻¹ | > 100 µM | 1.4 µM |
| CCOC(=O)/C=C/[C@H](CCC(N)=O)NC(=O)[C@H](Cc1ccccc1)NC(=O)[C@@H](NC(=O)OCc1ccccc1)[C@@H](C)CC | 31700 M⁻¹ s⁻¹ | > 100 µM | 0.79 µM |
| CCOC(=O)/C=C/[C@H](CCC(N)=O)NC(=O)[C@H](Cc1ccccc1)NC(=O)[C@@H](NC(=O)OCc1ccccc1)[C@H](C)O | 38900 M⁻¹ s⁻¹ | > 320 µM | 1.8 µM |
| CCOC(=O)/C=C/[C@H](CCC(N)=O)NC(=O)[C@H](Cc1ccccc1)NC(=O)[C@H](CC(C)C)NC(=O)N(C)Cc1ccccc1 | 3200 M⁻¹ s⁻¹ | > 100 µM | 5.6 µM |
| CCOC(=O)/C=C/[C@H](CCC(N)=O)NC(=O)[C@H](CC)NC(=O)[C@H](CC(C)C)NC(=O)OCc1ccccc1 | 4500 M⁻¹ s⁻¹ | > 320 µM | 6 µM |
| CCOC(=O)/C=C/[C@H](CCC(=O)NC(c1ccccc1)(c1ccccc1)c1ccccc1)NC(=O)[C@H](Cc1ccccc1)NC(=O)[C@H](CC(C)C)NC(=O)OCc1ccccc1 | 0 M⁻¹ s⁻¹ | > 320 µM | 100 µM |
| CCOC(=O)/C=C/[C@H](CCC(N)=O)NC(=O)[C@H](Cc1ccc(O)cc1)NC(=O)[C@H](CC(C)C)NC(=O)OCc1ccccc1 | 11300 M⁻¹ s⁻¹ | > 320 µM | 5.3 µM |
| CCOC(=O)/C=C/[C@H](CCC(N)=O)NC(=O)[C@H](Cc1nccn1C)NC(=O)[C@H](CC(C)C)NC(=O)OCc1ccccc1 | 8900 M⁻¹ s⁻¹ | > 320 µM | 10 µM |
| CCOC(=O)/C=C/[C@H](CCC(N)=O)NC(=O)[C@H](Cc1ccccc1)NC(=O)[C@H](CC(C)C)NC(=O)OCc1ccccc1 |  | > 320 µM | 0.54 µM |
| CCOC(=O)/C=C/[C@H](CCC(N)=O)NC(=O)[C@H](Cc1ccc(C)cc1)NC(=O)[C@@H](NC(=O)SC1CCCC1)C(C)(C)C |  |  | 0.056 µM |
